Patent publication US9669028B2, “Substituted 5-(pyrazin-2-yl)-1H-pyrazolo [3, 4-B] pyridine and pyrazolo [3, 4-B] pyridine derivatives as protein kinase inhibitors” (Arrien Pharmaceuticals LLC, priority 2011, dated 2017)
≈ marks a conversion by molar mass, not a printed value. Where “and” joins values, the source holds several entries; their conditions need not be identical. Equal values may be shown once.

Legend:
[1] = target: recombinant human MAO-A (Homo sapiens (Human), UniProt P21397); assay: Inhibition of monoamine oxidase MAO-A; format: biochemical; settings: kynuramine 50 μM, 25 min at 37° C.
recombinant human MAO-A, sequence (P21397 whole entry): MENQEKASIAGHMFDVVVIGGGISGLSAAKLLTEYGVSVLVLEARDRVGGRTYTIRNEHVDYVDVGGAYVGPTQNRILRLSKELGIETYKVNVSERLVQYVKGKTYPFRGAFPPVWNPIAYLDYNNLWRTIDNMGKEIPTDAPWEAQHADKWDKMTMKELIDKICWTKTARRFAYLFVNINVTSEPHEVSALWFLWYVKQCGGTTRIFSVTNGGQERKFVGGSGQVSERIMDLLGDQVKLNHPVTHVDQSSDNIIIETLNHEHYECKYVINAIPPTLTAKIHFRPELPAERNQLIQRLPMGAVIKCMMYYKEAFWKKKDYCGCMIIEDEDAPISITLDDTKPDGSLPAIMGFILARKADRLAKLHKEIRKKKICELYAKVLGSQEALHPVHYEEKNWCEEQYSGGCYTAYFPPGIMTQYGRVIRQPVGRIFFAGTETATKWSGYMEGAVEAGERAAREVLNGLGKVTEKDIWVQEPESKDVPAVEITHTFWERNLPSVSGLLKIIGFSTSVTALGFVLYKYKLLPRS
Method: (§1) Test compounds (0.01-100 μM) final DMSO concentration 0.1%, were incubated with recombinant human MAO-A (2 μg/mL) or MAO-B (2 μg/mL) in the presence of the probe substrate kynuramine (50 μM) for 25 min at 37° C. […] The reactions were terminated by addition of methanol containing internal standard for analytical quantification. The quenched samples were incubated at 4° C. for 10 min and centrifuged at 4° C. for 10 min. The supernatant was removed and analyzed by LC-MS/MS for the probe metabolite 4-hydroxyquinoline.

[2] = system: MPTP-injected C57 black mice; assay: MPTP mouse model, post-treatment study; format: in vivo; settings: post-administration, oral and i.v routes
Method: (§2) 32 C57 black mice (C57/bl6, 6-8 week old, 25-30 g) were purchased from Charles River Laboratories, Ohio. […] All animals were housed in Laboratory of Animal Resources vivarium at Iowa State University under standard conditions: constant temperature (22±1° C.), humidity (relative, 30%), and a 12-h light/dark cycle. Mice were allowed free access to food and water. Use of the animals and protocol procedures were approved and supervised by the Committee on Animal Care at Iowa State University (Ames, Iowa). Test compounds were dissolved in PBS for this study. Prior to treatment animals were pre-trained on rotarod for at least 3 minutes every day for three successive days. Group A animals were injected with saline (i.p.) to be used as controls. MPTP was dissolved in PBS and injected intraperitoneally (i.p.) at doses of 25 mg/kg, once daily for 5 days to group B, C and D animals. On day 4, prior to 4th MPTP injection, group C animals received test compounds (30 mg/kg, oral) daily for eight days. Similarly, on day 4, prior to 4th MPTP injection, group D animals received test compounds (5 mg/kg, i.v) daily for eight days. On day 9 (Post-test compounds administration) or day 12 (7 days post-MPTP), 4 animals/group were sacrificed, different brain regions including striatum and substantia nigra were dissected. Left striatum were used for neurochemical analysis. Other 4 animals/group were perfused and used for TH immunohistological studies.

[3] = target: LRRK2 G2019S (Homo sapiens (Human), UniProt Q5S007, G2019S); assay: LRRK2 G2019S Kinase Assay; format: biochemical; settings: 10 μM ATP
LRRK2 G2019S, sequence (Q5S007 970-2527 G2019S): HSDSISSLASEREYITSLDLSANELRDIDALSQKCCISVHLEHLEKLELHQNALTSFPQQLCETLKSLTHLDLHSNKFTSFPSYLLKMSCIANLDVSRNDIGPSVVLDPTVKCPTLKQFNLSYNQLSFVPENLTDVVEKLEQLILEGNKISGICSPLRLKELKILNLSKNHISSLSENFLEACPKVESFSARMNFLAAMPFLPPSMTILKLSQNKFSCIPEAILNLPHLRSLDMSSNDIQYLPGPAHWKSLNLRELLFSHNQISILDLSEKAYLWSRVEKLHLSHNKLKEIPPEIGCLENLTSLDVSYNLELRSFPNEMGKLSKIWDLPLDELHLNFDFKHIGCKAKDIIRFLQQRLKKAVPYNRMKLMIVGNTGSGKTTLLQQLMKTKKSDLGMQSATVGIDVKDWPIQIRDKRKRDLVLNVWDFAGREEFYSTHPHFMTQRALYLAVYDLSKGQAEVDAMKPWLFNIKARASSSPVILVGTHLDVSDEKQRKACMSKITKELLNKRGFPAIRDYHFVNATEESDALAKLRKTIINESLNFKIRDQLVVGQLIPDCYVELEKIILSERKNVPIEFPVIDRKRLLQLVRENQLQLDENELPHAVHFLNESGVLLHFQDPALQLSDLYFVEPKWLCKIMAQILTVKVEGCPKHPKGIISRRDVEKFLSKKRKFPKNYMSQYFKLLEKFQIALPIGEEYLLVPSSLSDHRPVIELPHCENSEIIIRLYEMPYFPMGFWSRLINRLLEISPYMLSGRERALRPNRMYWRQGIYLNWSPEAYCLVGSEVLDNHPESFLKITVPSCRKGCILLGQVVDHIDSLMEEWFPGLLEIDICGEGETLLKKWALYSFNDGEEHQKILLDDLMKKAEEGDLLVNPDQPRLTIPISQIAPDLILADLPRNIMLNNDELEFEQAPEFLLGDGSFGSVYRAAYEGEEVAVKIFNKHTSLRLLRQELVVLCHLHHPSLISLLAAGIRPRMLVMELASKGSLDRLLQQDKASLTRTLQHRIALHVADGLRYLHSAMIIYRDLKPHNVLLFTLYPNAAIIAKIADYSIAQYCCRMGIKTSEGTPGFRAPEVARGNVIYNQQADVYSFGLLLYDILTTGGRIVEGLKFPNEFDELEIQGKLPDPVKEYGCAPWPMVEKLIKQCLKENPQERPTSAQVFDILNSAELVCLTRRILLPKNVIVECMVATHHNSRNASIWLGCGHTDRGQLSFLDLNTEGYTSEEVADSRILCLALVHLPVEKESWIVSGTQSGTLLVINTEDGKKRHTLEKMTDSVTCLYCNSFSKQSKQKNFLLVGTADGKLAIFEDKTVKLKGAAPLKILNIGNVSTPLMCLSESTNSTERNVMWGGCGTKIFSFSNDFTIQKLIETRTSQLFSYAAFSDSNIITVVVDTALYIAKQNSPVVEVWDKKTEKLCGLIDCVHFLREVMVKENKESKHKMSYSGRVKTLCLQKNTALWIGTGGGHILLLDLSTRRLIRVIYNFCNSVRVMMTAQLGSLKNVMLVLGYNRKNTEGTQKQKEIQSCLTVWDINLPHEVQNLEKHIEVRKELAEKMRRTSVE
Outline: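 Radiometric filter-binding assay: enzyme, substrate peptide and compound were mixed on ice, ATP added, then incubated 20 min at 30° C. Reaction was stopped with phosphoric acid and the peptide captured on filters. Incorporated radioactivity was read by scintillation counting; staurosporine served as reference.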

[4] = target: DYRK1A (Homo sapiens (Human), UniProt Q13627); assay: In vitro DYRK1A inhibition assay; format: biochemical
[5] = system: 299 protein kinases+17 additional preview kinases; assay: Protein Kinase Selectivity Profiler; format: biochemical, human; settings: 10 μM ATP
Method: In vitro profiling of the 317 member kinase panel was performed at Reaction Biology Corporation using the “HotSpot” assay platform. Briefly, specific kinase/substrate pairs along with required cofactors were prepared in reaction buffer; 20 mM Hepes (pH 7.5), 10 mM MgCl2, 1 mM EGTA, 0.02% Brij35, 0.02 mg/ml BSA, 0.1 mM Na3VO4, 2 mM DTT, 1% DMSO. Compounds were delivered into the reaction, followed ˜20 min later by addition of a mixture of ATP (Sigma) and 33P ATP (PerkinElmer) to a final concentration of 10 μM. Reactions were carried out at 25° C. for 120 min, followed by spotting of the reactions onto P81 ion exchange filter paper (Whatman). Unbound phosphate was removed by extensive washing of filters in 0.75% phosphoric acid. […] IC50 values and curve fits were obtained using Prism (GraphPad Software). Kinome tree representations were prepared using Kinome Mapper (http://www.reactionbiology.com/apps/kinome/mapper/Launch Kinome.htm). Specifically for the LRRK2 enzyme the substrate LRRKtide (gene bank and protein access numbers NP_940980.2 Q5S007) and clone aa 970-2527 expressed in baculovirus in insect cells with N-terminal GST tag was employed in the study protocol. In the case of DYRK1A (SEQ ID NO 16) the substrate casein (gene bank and protein access numbers NP_001387 Q13627) full length clone expressed in insect with n-terminal tag was used.
A control compound was tested in 10-dose IC50 mode with 3-fold serial dilution starting at 20 μM. Reactions were carried out at 10 μM ATP. Data pages include raw data, % Enzyme activity (relative to DMSO controls), and curve fits.

[6] = target: recombinant human MAO-B (Homo sapiens (Human), UniProt P27338); assay: Inhibition of monoamine oxidase MAO-B; format: biochemical; settings: kynuramine 50 μM, 25 min at 37° C.
recombinant human MAO-B, sequence (P27338 whole entry): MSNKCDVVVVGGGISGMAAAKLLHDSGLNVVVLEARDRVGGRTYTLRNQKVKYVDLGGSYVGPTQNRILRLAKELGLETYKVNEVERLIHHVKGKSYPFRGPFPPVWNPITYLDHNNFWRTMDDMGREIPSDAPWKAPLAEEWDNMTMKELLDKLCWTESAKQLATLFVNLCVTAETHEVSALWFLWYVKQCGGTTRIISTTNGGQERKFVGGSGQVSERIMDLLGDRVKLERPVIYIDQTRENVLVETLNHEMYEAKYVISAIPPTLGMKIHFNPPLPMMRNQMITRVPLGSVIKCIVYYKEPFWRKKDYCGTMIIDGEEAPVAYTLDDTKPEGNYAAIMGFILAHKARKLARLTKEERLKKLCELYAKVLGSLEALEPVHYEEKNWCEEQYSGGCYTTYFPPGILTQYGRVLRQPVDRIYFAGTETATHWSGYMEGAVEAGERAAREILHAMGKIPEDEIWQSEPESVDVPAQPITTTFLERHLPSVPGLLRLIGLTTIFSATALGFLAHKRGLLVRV
Method: as §1

[7] = target: LRRK2 (Homo sapiens (Human), UniProt Q5S007); assay: LRRK2 Kinase Assay; format: biochemical; settings: 10 μM ATP
LRRK2, sequence (Q5S007 970-2527): as the sequence (Q5S007 970-2527 G2019S) above, with S1050G counted along it
Outline: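 Radiometric filter-binding assay: compound pre-incubated ~20 min with kinase and substrate peptide in 20 mM HEPES pH 7.5, 10 mM MgCl2, 1% DMSO, then 10 μM ATP with 33P-ATP added.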

[8] = system: MPTP-injected C57 black mice; assay: MPTP mouse model of Parkinson's disease, oral pre-treatment; format: in vivo; settings: for protection against MPTP-induced TH cell loss and dopaminergic degeneration in substantia nigra and striatum: 10 mg/kg and 30 mg/kg oral; for locomotor activities in MPTP-injected mice / striatal dopamine levels in MPTP treated mice: orally administered, pre-treatment
[9] = in vivo; settings: male, Sprague Dawley
Excerpt: To investigate the pharmacokinetic profiles of test compound following intravenous bolus administration and oral gavage in male Sprague Dawley rats.

[10] = system: Rat hepatoma (H4IIE) cell line; assay: In vitro toxicology, general cytotoxicity; format: cell-based; settings: rat, 24 h
Method: Cells were seeded into 96-well plates and cultured in medium containing 20% bovine serum. […] General cytotoxicity was evaluated by monitoring membrane integrity (MBR, cell supernatant), cell mass (PI) and mitochondrial function (cellular ATP levels). Rotenone was included as a positive control because it produces measurable effects in all three assays. DMSO at 0.5% in medium was included as a negative control. Three wells per exposure concentration were used in each assay. Results are summarized in Table 8 and are expressed as percent of control, with control values set at 100%. […] Test compounds 13 and 13 HCl were rank-ordered from most to least toxic based on individual membrane integrity and ATP responses as well as resultant TC50 values.
Test compounds 13 and 13 HCl were rank-ordered from highest to lowest probability of producing toxicity based first on membrane toxicity, then on ATP, and finally on cell mass (PI). It is important to note that within a given grouping compounds may be classified as to their primary effect being either cytotoxic, cytostatic, or reducing mitochondrial function. In general, compound responses above 80% of vehicle control are considered to be low-to-no effect, moderates generally rank 80% to 50% of vehicle control, and those compounds that cross the 50% mark are considered to have higher probability of toxicity.

[11] = physchem
[12] = system: MPTP-injected C57 black mice; assay: MPTP mouse model, intravenous pre-treatment; format: in vivo; settings: 5 mg/kg i.v.
Method: 24 C57 black mice (C57/bl6, 6-8 week old, and 25-30 g) were purchased from Charles River Laboratories, Ohio. […] Prior to treatment animals were pre-trained on rotarod for at least 3 minutes every day for three successive days. Test compound (5 mg/kg) was administered intravenously to group C animals, 24 h prior to MPTP-injection and continued daily for additional 11 days. MPTP was dissolved in PBS and injected intraperitoneally (i.p.) at doses of 25 mg/kg, once daily for 5 days to group B and C animals. Group A animals were injected with saline (i.p.) to be used as controls. Urine and Faeces were collected on Day 8, behavioural studies were performed on Day 9 (4-days post-MPTP). On day 12 (7 days post-MPTP), 4 animals/group were sacrificed, different brains regions including striatum and substantia nigra were dissected. Left striatum were used for neurochemical analysis. Other 4 animals/group were perfused and used for TH immunohistological studies.

[13] = BBB post-treatment results, concentration in mice brains; format: in vivo, mouse; settings: pooled regions
Method: as §2, with “Other 4 animals/group were perfused and used for TH immunohistological studies.” left out

Row | SMILES | IC50 [1] | protection against MPTP-induced histological deficits [2] | protection against MPTP-induced motor-deficits [2] | protection against MPTP-induced neurochemical deficits [2] | IC50 [3] | IC50 [4] | IC50 [6] | IC50 [7] | protection against MPTP-induced TH cell loss and dopaminergic degeneration in substantia nigra and striatum [8] | locomotor activities in MPTP-injected mice [8] | striatal dopamine levels in MPTP treated mice [8] | AUC(0-t) ([9]; rat, iv, 5 mg/kg) | Vd ([9]; rat, iv, 5 mg/kg) | clearance ([9]; rat, iv, 5 mg/kg) | half-life ([9]; rat, iv, 5 mg/kg) | AUC(0-t) ([9]; rat, po, 30 mg/kg) | Cmax ([9]; rat, po, 30 mg/kg) | F ([9]; rat, po, 30 mg/kg) | Tmax ([9]; rat, po, 30 mg/kg) | ATP TC50 [10] | further results
1 | c1cc2cc(-c3cncc(N4CCOCC4)n3)cnc2[nH]1 [Compound 148, 4-(6-(1H-pyrrolo[2,3-b]pyridin-5-yl)pyrazin-2-yl)morpholine] | > 100 µM | significantly protected | significantly protected | not against neurochemical deficits | < 500 nM | < 500 nM | 8.8 µM | < 500 nM | dose-dependent protection | Improve Locomotor Activities | Restore Striatal Dopamine Levels | 1020 ng·h/mL | 15.2 L/kg | 123 mL/min/kg | 136 min | 1040 ng·h/mL | 133 ng/mL | 24% | 6.7 h | – | % enzyme inhibition relative to DMSO controls ([5]; LRRK2, LRRK2 G2019S, CHK1, DYRK1A, FLT3, MLK1, TNIK, TRKA, single dose 0.5 μM, 1 μM): 5-15%
2 | Cc1n[nH]c2ncc(-c3cncc(NC4CCN(C)CC4)n3)cc12 [Compound 13, 6-(3methyl-1H-pyrazolo[3,4-b]pyridine-5yl)-N-(1-methylpiperidine-4yl)pyrazin-2-amine] | > 100 µM | – | – | – | < 500 nM | < 500 nM | > 100 µM | < 500 nM | dose-dependent protection | Improve Locomotor Activities | Restore Striatal Dopamine Levels | – | – | – | 136 min | – | – | 24% | 6.7 h | >50 µM | Cell Mass TC50 [10]: >50 µM; Mem Tox TC50 [10]: >50 µM; ATP % Control ([10]; 5 μM): 99%; Cell Mass % Control ([10]; 5 μM): 93%; Mem Tox % Control ([10]; 5 μM): 100%; ATP % Control ([10]; 10 μM): 99%; Cell Mass % Control ([10]; 10 μM): 88%; Mem Tox % Control ([10]; 10 μM): 96%; ATP % Control ([10]; 50 μM): 74%; Cell Mass % Control ([10]; 50 μM): 71%; Mem Tox % Control ([10]; 50 μM): 94%; activity against kinases in broader scope, relative to DMSO control ([5]; ABL1 T315I, ALK2, ARK5, Aurora A/B/C, BRAF, C-KIT, CLK1-4, CSF1R, DYRK1A-4, FLT3, GSK3β, JAK1-3, KDR, LCK ... TRKA-C, single dose): 5-15%; solubility [11]: 50 µM (≈ 16.2 µg/mL); AUC(0-t) ([9]; in vivo, iv, 5 mg/kg): 1020 ng·h/mL; Vd ([9]; in vivo, iv, 5 mg/kg): 15.2 L/kg; clearance ([9]; in vivo, iv, 5 mg/kg): 123 mL/min/kg; AUC(0-t) ([9]; in vivo, po, 30 mg/kg): 1040 ng·h/mL; Cmax ([9]; in vivo, po, 30 mg/kg): 133 ng/mL
3 | Cc1n[nH]c2ncc(-c3cncc(NC4CCN(C)CC4)n3)cc12.Cl [13 HCl, 6-(3-methyl-1H-pyrazolo[3,4-b]pyridin-5-yl)-N-(1-methylpiperidin-4-yl)pyrazin-2-amine hydrochloride] | – | significantly protected | significantly protected | not against neurochemical deficits | – | – | – | – | dose-dependent protection | Improve Locomotor Activities | Restore Striatal Dopamine Levels | 1020 ng·h/mL | 15.2 L/kg | 123 mL/min/kg | 136 min | 1040 ng·h/mL | 133 ng/mL | 24% | 6.7 h | >50 µM | Cell Mass TC50 [10]: >50 µM; Mem Tox TC50 [10]: >50 µM; ATP % Control ([10]; 5 μM): 93%; Cell Mass % Control ([10]; 5 μM): 89%; Mem Tox % Control ([10]; 5 μM): 93%; ATP % Control ([10]; 10 μM): 91%; Cell Mass % Control ([10]; 10 μM): 81%; Mem Tox % Control ([10]; 10 μM): 91%; ATP % Control ([10]; 50 μM): 78%; Cell Mass % Control ([10]; 50 μM): 62%; Mem Tox % Control ([10]; 50 μM): 90%; protection against MPTP-induced TH neuronal loss in the substantia nigra and in the striatum [12]: Protect Against MPTP-Induced TH Neuronal Loss; solubility [11]: 50 µM; Calc. Conc. of test compound 13 HCl in Mice Brains ([13]; individual subjects, hydrochloride): 2.92 ng/g and 1.36 ng/g and 2.32 ng/g and 3.09 ng/g and 3.79 ng/g and 2.74 ng/g and 3.03 ng/g and 2.72 ng/g; Calc. Conc. of test compound 13 HCl in Mice Brains, Mean ([13]; mean of subjects): 2.75 ng/g
